Literature values as cited in patent publication US20120078160A1, “METHOD AND APPARATUS FOR CANCER THERAPY” (Gradiant Research, LLC, priority 2009, published 2012).

With `O=c1[nH]cc(F)c(=O)[nH]1` [5FU, 5-fluorouracil] as the molecule, how does the pKa read?
The pKa was 7.93.

What about the “Koct, octanol water partition coefficient” value (pH 7.4) of the same molecule?
Its value is 0.129.
